Results from article PMC3710292 (Cellular and molecular life sciences : CMLS, 2013).

Assays:
Assay type in all cases: cell-based
[1] = target: human TRPM7 (Homo sapiens, UniProt Q96QT4); experiment: whole-cell patch clamp, current at +[…] mV
[2] = target: human TRPM6 (hTRPM6) (Homo sapiens, UniProt Q9BX84); experiment: whole-cell patch clamp, current at +[…] mV, […] s; conditions: intracellular iodide 154 mM; no intracellular Mg2+; pH 7.2
[3] = target: TRPM7 Δ-kinase (Homo sapiens, UniProt Q96QT4); experiment: whole-cell patch clamp, current at +[…] mV
Sequence of TRPM7 Δ-kinase (Q96QT4 1-1569, stated change not applied): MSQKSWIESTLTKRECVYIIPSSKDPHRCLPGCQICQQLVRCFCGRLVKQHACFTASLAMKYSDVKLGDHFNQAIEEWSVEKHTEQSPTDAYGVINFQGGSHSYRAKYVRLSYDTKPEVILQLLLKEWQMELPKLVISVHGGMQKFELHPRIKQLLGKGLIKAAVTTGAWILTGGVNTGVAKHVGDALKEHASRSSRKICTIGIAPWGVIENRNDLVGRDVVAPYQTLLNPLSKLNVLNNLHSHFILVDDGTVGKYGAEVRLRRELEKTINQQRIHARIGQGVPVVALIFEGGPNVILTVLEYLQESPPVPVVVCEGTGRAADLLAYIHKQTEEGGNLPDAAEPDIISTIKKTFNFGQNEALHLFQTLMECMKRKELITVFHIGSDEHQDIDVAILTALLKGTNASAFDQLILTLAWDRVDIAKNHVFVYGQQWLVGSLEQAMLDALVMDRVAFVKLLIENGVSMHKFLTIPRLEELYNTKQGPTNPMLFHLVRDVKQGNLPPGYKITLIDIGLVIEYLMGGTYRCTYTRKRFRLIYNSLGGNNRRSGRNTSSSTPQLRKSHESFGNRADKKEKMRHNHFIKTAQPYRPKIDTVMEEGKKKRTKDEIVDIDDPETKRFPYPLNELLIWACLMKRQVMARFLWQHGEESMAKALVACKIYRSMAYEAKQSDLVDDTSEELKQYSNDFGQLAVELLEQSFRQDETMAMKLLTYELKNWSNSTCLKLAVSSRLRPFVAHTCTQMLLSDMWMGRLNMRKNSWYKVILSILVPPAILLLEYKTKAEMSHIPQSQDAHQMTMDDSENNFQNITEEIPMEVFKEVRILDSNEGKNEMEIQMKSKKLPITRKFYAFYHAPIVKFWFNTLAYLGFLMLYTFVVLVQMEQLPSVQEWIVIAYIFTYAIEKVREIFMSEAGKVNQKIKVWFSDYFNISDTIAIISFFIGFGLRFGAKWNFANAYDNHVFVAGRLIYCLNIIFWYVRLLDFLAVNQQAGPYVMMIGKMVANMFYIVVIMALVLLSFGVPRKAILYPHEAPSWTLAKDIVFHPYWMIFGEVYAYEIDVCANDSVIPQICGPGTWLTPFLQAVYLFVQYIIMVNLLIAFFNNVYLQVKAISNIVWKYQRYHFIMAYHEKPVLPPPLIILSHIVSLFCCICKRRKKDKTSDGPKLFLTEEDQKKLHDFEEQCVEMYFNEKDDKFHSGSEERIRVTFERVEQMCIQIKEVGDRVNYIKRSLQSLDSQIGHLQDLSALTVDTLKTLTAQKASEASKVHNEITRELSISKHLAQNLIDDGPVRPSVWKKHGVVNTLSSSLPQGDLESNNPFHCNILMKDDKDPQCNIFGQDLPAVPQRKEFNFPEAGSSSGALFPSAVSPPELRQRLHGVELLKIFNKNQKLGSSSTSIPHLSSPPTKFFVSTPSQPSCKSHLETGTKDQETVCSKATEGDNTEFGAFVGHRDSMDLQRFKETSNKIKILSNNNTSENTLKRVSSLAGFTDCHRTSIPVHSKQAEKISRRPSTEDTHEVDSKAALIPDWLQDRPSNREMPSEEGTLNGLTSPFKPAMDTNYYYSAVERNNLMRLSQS

Sequence of human TRPM7 (Q96QT4 whole entry): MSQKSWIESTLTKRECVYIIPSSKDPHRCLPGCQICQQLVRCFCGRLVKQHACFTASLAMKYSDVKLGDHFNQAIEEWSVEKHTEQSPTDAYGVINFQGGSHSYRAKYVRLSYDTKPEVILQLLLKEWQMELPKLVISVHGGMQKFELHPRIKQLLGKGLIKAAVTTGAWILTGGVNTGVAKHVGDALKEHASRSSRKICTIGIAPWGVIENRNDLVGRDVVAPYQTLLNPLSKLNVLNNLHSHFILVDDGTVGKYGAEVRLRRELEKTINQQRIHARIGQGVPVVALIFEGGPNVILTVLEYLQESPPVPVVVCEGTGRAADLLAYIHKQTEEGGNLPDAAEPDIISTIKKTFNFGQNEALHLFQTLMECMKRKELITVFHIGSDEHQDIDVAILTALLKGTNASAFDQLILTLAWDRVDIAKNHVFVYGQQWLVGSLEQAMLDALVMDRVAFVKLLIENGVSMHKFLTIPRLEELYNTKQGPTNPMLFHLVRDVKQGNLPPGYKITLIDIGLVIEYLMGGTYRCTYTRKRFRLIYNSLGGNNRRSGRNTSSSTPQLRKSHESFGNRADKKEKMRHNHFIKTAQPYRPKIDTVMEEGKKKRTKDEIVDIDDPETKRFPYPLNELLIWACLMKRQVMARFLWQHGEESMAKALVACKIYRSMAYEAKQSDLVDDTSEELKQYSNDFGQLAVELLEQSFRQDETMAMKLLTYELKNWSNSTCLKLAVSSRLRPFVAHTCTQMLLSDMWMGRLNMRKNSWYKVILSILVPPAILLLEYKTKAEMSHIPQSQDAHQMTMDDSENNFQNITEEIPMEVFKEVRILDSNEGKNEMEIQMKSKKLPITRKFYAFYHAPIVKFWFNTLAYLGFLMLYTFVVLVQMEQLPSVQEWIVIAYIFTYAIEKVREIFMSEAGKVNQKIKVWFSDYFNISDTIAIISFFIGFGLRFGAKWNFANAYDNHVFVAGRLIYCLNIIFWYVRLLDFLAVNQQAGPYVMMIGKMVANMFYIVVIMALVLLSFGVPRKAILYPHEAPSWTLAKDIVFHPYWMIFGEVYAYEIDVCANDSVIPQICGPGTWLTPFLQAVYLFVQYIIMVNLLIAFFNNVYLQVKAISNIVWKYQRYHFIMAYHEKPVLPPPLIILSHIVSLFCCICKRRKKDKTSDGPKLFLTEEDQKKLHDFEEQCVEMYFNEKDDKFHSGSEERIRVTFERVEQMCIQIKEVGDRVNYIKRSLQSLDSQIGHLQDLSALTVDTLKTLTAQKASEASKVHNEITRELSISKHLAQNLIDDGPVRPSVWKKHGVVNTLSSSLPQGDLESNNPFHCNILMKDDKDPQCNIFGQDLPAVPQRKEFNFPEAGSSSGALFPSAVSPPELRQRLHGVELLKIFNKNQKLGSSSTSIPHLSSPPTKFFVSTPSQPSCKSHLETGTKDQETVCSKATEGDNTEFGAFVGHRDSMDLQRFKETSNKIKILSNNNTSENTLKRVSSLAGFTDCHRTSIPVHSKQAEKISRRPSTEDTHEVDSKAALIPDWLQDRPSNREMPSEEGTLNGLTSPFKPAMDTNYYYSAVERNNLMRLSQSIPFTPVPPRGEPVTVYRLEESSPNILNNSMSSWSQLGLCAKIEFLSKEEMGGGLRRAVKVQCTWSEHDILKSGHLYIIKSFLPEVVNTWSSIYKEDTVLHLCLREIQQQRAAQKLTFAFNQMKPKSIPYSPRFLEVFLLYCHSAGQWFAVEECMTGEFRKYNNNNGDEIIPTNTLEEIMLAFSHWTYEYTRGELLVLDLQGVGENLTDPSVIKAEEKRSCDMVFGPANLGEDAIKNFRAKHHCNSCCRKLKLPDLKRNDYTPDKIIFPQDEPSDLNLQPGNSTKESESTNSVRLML

% inhibition at 154 mM [2] [%]	IC50 [3] [mM]	Compound	IC50 [1] [mM]
–	–	Br [bromide]	88 ± 6
–	–	Cl [chloride]	99 ± 9
52	31 ± 3	I [iodide]	–
